Nine molecules from patent US10004701B2, “Methods and compositions for treating infection” (UNIVERSITY OF ROCHESTER, priority 2012, dated 2018) can be followed below.

Structures can show the parent of a compound that is named as a salt. Where two headings read alike, the source gives them in different places.

What all share (assay): AK assay 384-well format, Prestwick library screening
The test system of one assay is E. faecium. The format is cell-based, Enterococcus faecium. As to conditions: 50 μM final drug concentration; for fold induction at 50 µM: Enterococcus faecium, 3 h.
Assay [1] deals with A. baumannii strain 98-37-09. Type of assay: cell-based, Acinetobacter baumannii. The settings on record: 50 μM final drug concentration; for fold induction at 50 µM: Acinetobacter baumannii, 983709, 3 h.
The next assay has as its system P. aeruginosa. The format is cell-based, Pseudomonas aeruginosa. The settings on record: 50 μM final drug concentration; for fold induction at 50 µM: Pseudomonas aeruginosa, 3 h.
Assay [2] relates to S. aureus strain USA300-0114. Type of assay: cell-based, Staphylococcus aureus. As to conditions: 50 μM final drug concentration; for fold induction at 50 µM: Staphylococcus aureus, USA300, 3 h.
The next assay relates to E. cloacae. Type of assay: cell-based, Enterobacter cloacae. The settings on record: 50 μM final drug concentration; for fold induction at 50 µM: Enterobacter cloacae, 3 h.
In a further assay the test system is E. coli. Type of assay: cell-based, Escherichia coli. As to conditions: 50 μM final drug concentration; for fold induction at 50 µM: Escherichia coli, 3 h.
The subject of a further assay is K. pneumoniae. The format is cell-based, Klebsiella pneumoniae. The settings on record: 50 μM final drug concentration; for fold induction at 50 µM: Klebsiella pneumoniae, 3 h.
[3] abbreviates: planktonic, cutoff for positive 3-fold increase.
[4] abbreviates: 384-well format, cutoff for positive-scoring molecules 3-fold increase, read-out: AK-based Prestwick Library Screening Results, E. faecium (increase in extracellular AK activity).
Where [5] appears, read: 384-well format, cutoff for positive-scoring molecules 3-fold increase, read-out: AK-based Prestwick Library Screening Results, A. baumannii (increase in extracellular AK activity).
The mark [6] stands for this setting: 384-well format, cutoff for positive-scoring molecules 3-fold increase, read-out: AK-based Prestwick Library Screening Results, P. aeruginosa (increase in extracellular AK activity).
Setting [7] is: 384-well format, cutoff for positive-scoring molecules 3-fold increase, read-out: AK-based Prestwick Library Screening Results, S. aureus (increase in extracellular AK activity).
[8] abbreviates: 384-well format, cutoff for positive-scoring molecules 3-fold increase, read-out: AK-based Prestwick Library Screening Results, E. cloacae (increase in extracellular AK activity).
Where [9] appears, read: 384-well format, cutoff for positive-scoring molecules 3-fold increase, read-out: AK-based Prestwick Library Screening Results, E. coli (increase in extracellular AK activity).
Setting [10] is: 384-well format, cutoff for positive-scoring molecules 3-fold increase, read-out: AK-based Prestwick Library Screening Results, K. pneumoniae (increase in extracellular AK activity).
The mark [11] stands for this setting: planktonic, cutoff for positive 3-fold increase, read-out: AK-based Prestwick Library Screening Results, E. faecium (fold increase in extracellular AK activity).
Setting [12] is: planktonic, cutoff for positive 3-fold increase, read-out: AK-based Prestwick Library Screening Results, A. baumannii (fold increase in extracellular AK activity).
Setting [13] is: planktonic, cutoff for positive 3-fold increase, read-out: AK-based Prestwick Library Screening Results, P. aeruginosa (fold increase in extracellular AK activity).
Where [14] appears, read: planktonic, cutoff for positive 3-fold increase, read-out: AK-based Prestwick Library Screening Results, S. aureus (fold increase in extracellular AK activity).
The mark [15] stands for this setting: planktonic, cutoff for positive 3-fold increase, read-out: AK-based Prestwick Library Screening Results, E. cloacae (fold increase in extracellular AK activity).
The mark [16] stands for this setting: planktonic, cutoff for positive 3-fold increase, read-out: AK-based Prestwick Library Screening Results, K. pneumoniae (fold increase in extracellular AK activity).
Setting [17] is: cutoff for positive-scoring molecules 3-fold increase.

As for `Cc1c(NC(C)C)c(=O)n(-c2ccccc2)n1C.Cl` [Isopyrin hydrochloride], the “AK-based Prestwick Library Screening Results, E. faecium (fold increase in extracellular AK activity)” value in the assay with E. faecium (setting [3]) turned out to be 0.8. Moreover, in assay [1] (setting [3]), the “AK-based Prestwick Library Screening Results, A. baumannii (fold increase in extracellular AK activity)” value was 0.3. Besides, the “AK-based Prestwick Library Screening Results, P. aeruginosa (fold increase in extracellular AK activity)” value in the assay on P. aeruginosa (setting [3]) amounted to 0.4. The “AK-based Prestwick Library Screening Results, S. aureus (fold increase in extracellular AK activity)” value in assay [2] (setting [3]) is recorded as 0.4. Further, the “AK-based Prestwick Library Screening Results, E. cloacae (fold increase in extracellular AK activity)” value in the assay on E. cloacae (setting [3]) is 0.3. The “AK-based Prestwick Library Screening Results, E. coli (fold increase in extracellular AK activity)” value in the assay with E. coli (setting [3]) stood at 0.4. Moreover, the “AK-based Prestwick Library Screening Results, K. pneumoniae (fold increase in extracellular AK activity)” value with K. pneumoniae (setting [3]) amounted to 0.4.

In the case of `C=CCOc1ccccc1OCC(O)CNC(C)C` (stereo not drawn) [Oxprenolol hydrochloride], the fold induction at 50 µM in the assay with E. faecium (planktonic E. faecium, positive cutoff 3-fold increase, read-out: AK-based Prestwick library screening result, E. faecium (fold increase in extracellular AK activity)) was 0.9; in assay [1] (planktonic A. baumannii, positive cutoff 3-fold increase, read-out: AK-based Prestwick library screening result, A. baumannii (fold increase in extracellular AK activity)), 0.6; in the assay on P. aeruginosa (planktonic P. aeruginosa, positive cutoff 3-fold increase, read-out: AK-based Prestwick library screening result, P. aeruginosa (fold increase in extracellular AK activity)), 0.6; in assay [2] (planktonic S. aureus, positive cutoff 3-fold increase, read-out: AK-based Prestwick library screening result, S. aureus (fold increase in extracellular AK activity)), 0.6; in the assay with E. cloacae (planktonic E. cloacae, positive cutoff 3-fold increase, read-out: AK-based Prestwick library screening result, E. cloacae (fold increase in extracellular AK activity)) it was 0.9; with E. coli (planktonic E. coli, positive cutoff 3-fold increase, read-out: AK-based Prestwick library screening result, E. coli (fold increase in extracellular AK activity)), 0.7. In addition, the fold induction at 50 µM in the assay with K. pneumoniae (planktonic K. pneumoniae, positive cutoff 3-fold increase, read-out: AK-based Prestwick library screening result, K. pneumoniae (fold increase in extracellular AK activity)) was determined as 0.6.

As for `CNCCC(Oc1ccc(C(F)(F)F)cc1)c1ccccc1` (stereo not drawn) [Fluoxetine hydrochloride], the fold induction at 50 µM was 0.9 in the assay with E. faecium (planktonic E. faecium, cutoff for positive-scoring molecules 3-fold increase, read-out: AK-based Prestwick Library Screening Results, E. faecium (increase in extracellular AK activity)); 1 in assay [1] (planktonic A. baumannii, cutoff for positive-scoring molecules 3-fold increase, read-out: AK-based Prestwick Library Screening Results, A. baumannii (increase in extracellular AK activity)); 0.9 with P. aeruginosa (planktonic P. aeruginosa, cutoff for positive-scoring molecules 3-fold increase, read-out: AK-based Prestwick Library Screening Results, P. aeruginosa (increase in extracellular AK activity)); 1.1 in assay [2] (planktonic S. aureus, cutoff for positive-scoring molecules 3-fold increase, read-out: AK-based Prestwick Library Screening Results, S. aureus (increase in extracellular AK activity)); 1.1 in the assay with E. cloacae (planktonic E. cloacae, cutoff for positive-scoring molecules 3-fold increase, read-out: AK-based Prestwick Library Screening Results, E. cloacae (increase in extracellular AK activity)); 1 in the assay with E. coli (planktonic E. coli, cutoff for positive-scoring molecules 3-fold increase, read-out: AK-based Prestwick Library Screening Results, E. coli (increase in extracellular AK activity)). Also, in the assay on K. pneumoniae (planktonic K. pneumoniae, cutoff for positive-scoring molecules 3-fold increase, read-out: AK-based Prestwick Library Screening Results, K. pneumoniae (increase in extracellular AK activity)), the fold induction at 50 µM amounted to 0.8.

As for `C[C@H](CCC(=O)O)[C@H]1CC[C@H]2[C@@H]3[C@H](O)C[C@@H]4C[C@H](O)CC[C@]4(C)[C@H]3CC[C@]12C` [Chenodiol], the fold induction at 50 µM in the assay with E. faecium (planktonic E. faecium, 384-well, cutoff for positive-scoring molecules 3-fold increase, read-out: AK-based Prestwick Library Screening Results: E. faecium (increase in extracellular AK activity)) came out at 1; in assay [1] (planktonic A. baumannii, 384-well, cutoff for positive-scoring molecules 3-fold increase, read-out: AK-based Prestwick Library Screening Results: A. baumannii (increase in extracellular AK activity)), 1; with P. aeruginosa (planktonic P. aeruginosa, 384-well, cutoff for positive-scoring molecules 3-fold increase, read-out: AK-based Prestwick Library Screening Results: P. aeruginosa (increase in extracellular AK activity)), 1.2; in assay [2] (planktonic S. aureus, 384-well, cutoff for positive-scoring molecules 3-fold increase, read-out: AK-based Prestwick Library Screening Results: S. aureus (increase in extracellular AK activity)), 1.7; in the assay with E. cloacae (planktonic E. cloacae, 384-well, cutoff for positive-scoring molecules 3-fold increase, read-out: AK-based Prestwick Library Screening Results: E. cloacae (increase in extracellular AK activity)) it was 1.5; in the assay on E. coli (planktonic E. coli, 384-well, cutoff for positive-scoring molecules 3-fold increase, read-out: AK-based Prestwick Library Screening Results: E. coli (increase in extracellular AK activity)), 1.2. Further, the fold induction at 50 µM in the assay with K. pneumoniae (planktonic K. pneumoniae, 384-well, cutoff for positive-scoring molecules 3-fold increase, read-out: AK-based Prestwick Library Screening Results: K. pneumoniae (increase in extracellular AK activity)) turned out to be 0.8.

Regarding `N[C@@H]1C[C@H]1c1ccccc1` [Tranylcypromine hydrochloride], the fold induction at 50 µM worked out at 1 in the assay with E. faecium (setting [4]); 0.9 in assay [1] (setting [5]); 0.8 with P. aeruginosa (setting [6]); 0.8 in assay [2] (setting [7]); 0.9 in the assay on E. cloacae (setting [8]); 0.8 with E. coli (setting [9]). Also, the fold induction at 50 µM in the assay with K. pneumoniae (setting [10]) came to 0.6.

In the case of `COc1c2c(cc3c1OCO3)CCN(C)C2` [Hydrocotarnine hydrobromide], the fold induction at 50 µM in the assay with E. faecium (setting [11]) was 1; in assay [1] (setting [12]), 1.3; in the assay on P. aeruginosa (setting [13]), 1.2; in assay [2] (setting [14]), 1; with E. cloacae (setting [15]), 1.4; with E. coli (planktonic, […], read-out: AK-based Prestwick Library Screening Results, E. coli (fold increase in extracellular AK activity)), 1.2. Further, the fold induction at 50 µM in the assay with K. pneumoniae (setting [16]) was found to be 0.9.

Consider `CC(=O)N(O)CCCCCNC(=O)CCC(=O)N(O)CCCCCNC(=O)CCC(=O)N(O)CCCCCN` [Deferoxamine mesylate], for which the fold induction at 50 µM came out at 0.9 in the assay on E. faecium (setting [11]); 0.4 in assay [1] (setting [12]); 0.4 with P. aeruginosa (setting [13]); 0.4 in assay [2] (setting [14]); 0.4 in the assay on E. cloacae (setting [15]); 0.4 in the assay with E. coli (planktonic, cutoff for positive 3-fold increase, read-out: AK-based Prestwick Library Screening Results, E. coli (fold increase in extracellular AK activity)). Moreover, the fold induction at 50 µM in the assay with K. pneumoniae (setting [16]) came to 0.5.

For the molecule `Nc1ncn([C@@H]2O[C@H](CO)[C@@H](O)[C@H]2O)c(=O)n1` [Azacytidine-5], the “AK-based Prestwick Library Screening Results, E. faecium (fold increase in extracellular AK activity)” value in the assay on E. faecium (setting [17]) amounted to 1.0. In addition, the “AK-based Prestwick Library Screening Results, A. baumannii (fold increase in extracellular AK activity)” value in assay [1] (setting [17]) is 1.4. Also, the “AK-based Prestwick Library Screening Results, P. aeruginosa (fold increase in extracellular AK activity)” value in the assay with P. aeruginosa (setting [17]) worked out at 1.2. The “AK-based Prestwick Library Screening Results, S. aureus (fold increase in extracellular AK activity)” value in assay [2] (setting [17]) is given as 1.2. In addition, the “AK-based Prestwick Library Screening Results, E. cloacae (fold increase in extracellular AK activity)” value in the assay on E. cloacae (setting [17]) is on record as 1.5. Moreover, the “AK-based Prestwick Library Screening Results, E. coli (fold increase in extracellular AK activity)” value with E. coli (setting [17]) came out at 2.2. The “AK-based Prestwick Library Screening Results, K. pneumoniae (fold increase in extracellular AK activity)” value in the assay with K. pneumoniae (setting [17]) stood at 0.9.

For the molecule `CN(C)C/C=C(/c1ccc(Br)cc1)c1cccnc1` [Zimelidine dihydrochloride monohydrate], the fold induction at 50 µM in the assay on E. faecium (setting [4]) stood at 0.9; in assay [1] (setting [5]), 0.7; in the assay with P. aeruginosa (setting [6]) it was 0.6; in assay [2] (setting [7]), 0.8; in the assay on E. cloacae (setting [8]), 0.8; with E. coli (setting [9]), 0.7. In addition, in the assay with K. pneumoniae (setting [10]), the fold induction at 50 µM was found to be 0.5.
